Experimental data published in the NIST ThermoML archive (doi:10.1021/je800158z).

Assays:
[1] = 81.5 kPa, Liquid
[2] = xn = mol fraction of the nth substance listed; details: 81.5 kPa, Liquid

CCCO [propan-1-ol]
[1]
Details | mass density [kg/m3]
293.15 K | 803.59
303.15 K | 795.53
313.15 K | 787.38
323.15 K | 778.92

CCCO [propan-1-ol] + O
mass density [kg/m3], [2]
Details | 293.15 K | 303.15 K | 313.15 K | 323.15 K
x1 = 0.0401 | 980.98 | 976.93 | 972.23 | 966.91
x1 = 0.1202 | 947.94 | 941.35 | 934.48 | 927.31
x1 = 0.2 | 918.86 | 911.37 | 903.85 | 896.05
x1 = 0.2798 | 895.6 | 887.91 | 879.98 | 871.78
x1 = 0.3599 | 877.53 | 869.57 | 861.38 | 852.93
x1 = 0.4399 | 863 | 854.86 | 846.49 | 837.86
x1 = 0.5197 | 851.12 | 842.87 | 834.37 | 825.64
x1 = 0.5986 | 840.82 | 832.48 | 823.92 | 815.16
x1 = 0.6792 | 831.69 | 823.34 | 814.76 | 805.95
x1 = 0.7485 | 824.84 | 816.47 | 807.91 | 799.13
x1 = 0.8383 | 816.74 | 808.45 | 799.96 | 791.25
x1 = 0.9052 | 811.17 | 802.94 | 794.55 | 785.94
x1 = 1 | 803.59 | 795.53 | 787.38 | 778.92

CC(C)O [propan-2-ol]
[1]
Details | mass density [kg/m3]
293.15 K | 785.1
303.15 K | 776.63
313.15 K | 767.84
323.15 K | 758.68

CC(C)O [propan-2-ol] + O
mass density [kg/m3], [2]
Details | 293.15 K | 303.15 K | 313.15 K | 323.15 K
x1 = 0.0399 | 979.61 | 976 | 971.52 | 966.2
x1 = 0.1197 | 948.88 | 941.64 | 934.18 | 926.48
x1 = 0.2017 | 916.63 | 908.64 | 900.42 | 891.98
x1 = 0.28 | 891.87 | 883.56 | 875.01 | 866.23
x1 = 0.359 | 871.15 | 862.65 | 853.89 | 844.85
x1 = 0.4384 | 854.11 | 845.46 | 836.52 | 827.31
x1 = 0.5204 | 839.36 | 830.58 | 821.54 | 812.2
x1 = 0.5995 | 827.56 | 818.72 | 809.6 | 800.16
x1 = 0.6801 | 817.14 | 808.26 | 799.08 | 789.6
x1 = 0.7552 | 808.56 | 799.67 | 790.48 | 780.98
x1 = 0.8403 | 799.95 | 791.1 | 781.97 | 772.47
x1 = 0.9225 | 792.03 | 783.34 | 774.33 | 764.97
x1 = 1 | 785.1 | 776.63 | 767.84 | 758.68

O [water] + CC(C)O
Details | mass density [kg/m3]
[2], 323.15 K, x2 = 0 | 988.03

O [water] + CCCO
Details | mass density [kg/m3]
[2], 323.15 K, x2 = 0 | 988.03
